Experimental data: the supplement of paper PMC11208160

Assay: recombinant barcode read abundance after kanamycin selection (control-corrected) (log10(CPM+1)); higher = more efficient recombination; sequences stand for … in AGTGCAGAGAAAATCGGCCAGTTTTCTCTGCCTGCAGTCCGCATGCCGT…AGATTTATGCAGCGGACTGCCTTTCTCCCAAAGTGATAAACCGGACAGTATCATGGACCGGTTTTCCCGGTAATCCGTATTTGCAAGGTTGGTTTCACT; site = the 11-nt target
Procedure, shortened: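 Targets were screened in pooled form in E. coli against IS621 bridge RNA target-binding loops. Recombination efficiency is based on barcode counts at recombinant junctions in counts per million, averaged and corrected for the control. Numbers are shown as log10(CPM+1), with duplicate plates on chloramphenicol/ampicillin LB agar (control) or chloramphenicol/ampicillin/kanamycin with 0.1 mM IPTG.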
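Note: IS621 recombinase and bridge RNA in Escherichia coli cells.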

Sequence	recombinant barcode read abundance (log10)
CTCTTCGCTTGGGTTCTAACCTGTTGCCT (site CTCTTCGCTAG)	0.314
CTGAAGCCTTGGGTTCTAACCTGTTGCCT (site ATGAAGCCTAG)	0.0394
CTGAAGCCTTGGGTTCTAACCTGTTGCCT (site CTGAAGCCTAG)	1.74
CTGAAGCCTTGGGTTCTAACCTGTTGCCT (site GTGAAGCCTAG)	0.386
CTGAAGCCTTGGGTTCTAACCTGTTGCCT (site TTGAAGCCTAG)	0.409
CTGACTTCTTGGGTTCTAACCTGTTGCCT (site CAGACTTCTAG)	0.0484
CTGACTTCTTGGGTTCTAACCTGTTGCCT (site CCGACTTCTAG)	0.0377
CTGACTTCTTGGGTTCTAACCTGTTGCCT (site CGGACTTCTAG)	0.079
CTGACTTCTTGGGTTCTAACCTGTTGCCT (site CTGACTTCTAG)	0.121
CTGAGTACTTGGGTTCTAACCTGTTGCCT (site ATCAGTACTAG)	0.0653
CTGAGTACTTGGGTTCTAACCTGTTGCCT (site CTGAGTACTAG)	1.08
CTGAGTCCTTGGGTTCTAACCTGTTGCCA (site CTGAGTCCTTG)	0.424
CTGAGTCCTTGGGTTCTAACCTGTTGCCA (site CTGAGTTCTTG)	0.402
CTGATCCCTTGGGTTCTAACCTGTTGCCT (site CAGATCCCTAG)	0.629
CTGATCCCTTGGGTTCTAACCTGTTGCCT (site CCGATCCCTAG)	0.182
CTGATCCCTTGGGTTCTAACCTGTTGCCT (site CGGATCCCTAG)	0.255
CTGATCCCTTGGGTTCTAACCTGTTGCCT (site CTGATCCCTAG)	1.22
CTGATGACTTGGGTTCTAACCTGTTGCCT (site CTGATAACTAG)	0.177
CTGATGACTTGGGTTCTAACCTGTTGCCT (site CTGATCACTAG)	0.247
CTGATGACTTGGGTTCTAACCTGTTGCCT (site CTGATGACTAG)	0.999
CTGATGACTTGGGTTCTAACCTGTTGCCT (site CTGATTACTAG)	0.0174
CTGATGTCTTGGGTTCTAACCTGTTGCCA (site CTGATGTCTTG)	0.456

Sequence	recombinant barcode read abundance (log10)
CTGATGTCTTGGGTTCTAACCTGTTGCCA (site CTGCTGTCTTG)	0.126
CTGATGTCTTGGGTTCTAACCTGTTGCCA (site CTGGTGTCTTG)	0.388
CTGATGTCTTGGGTTCTAACCTGTTGCCA (site CTGTTGTCTTG)	0.136
CTGCACCCTTGGGTTCTAACCTGTTGCTA (site CTGCACCCTTA)	1.61
CTGCACCCTTGGGTTCTAACCTGTTGCTA (site GGCGGAGCTCG)	0.378
CTGCACTCTTGGGTTCTAACCTGTTGCCA (site CTGCACTCTTG)	0.842
CTGCACTCTTGGGTTCTAACCTGTTGCCA (site CTGTACTCTAG)	0.28
CTGCAGACTTGGGTTCTAACCTGTTGCCG (site CTCCAGACTCT)	0.37
CTGCAGACTTGGGTTCTAACCTGTTGCCG (site CTGCAGACTCG)	0.41
CTGCAGTCTTGGGTTCTAACCTGTTGCCA (site CTGCAGTCTTG)	0.18
CTGCAGTCTTGGGTTCTAACCTGTTGCCA (site TGCATAGCTCT)	0.126
CTGCTCCCTTGGGTTCTAACCTGTTGCGG (site CTGATCCCTCC)	0.124
CTGCTCCCTTGGGTTCTAACCTGTTGCGG (site CTGCTCCCTCC)	0.36
CTGCTCCCTTGGGTTCTAACCTGTTGCGG (site CTGGTCCCTCC)	0.306
CTGCTCCCTTGGGTTCTAACCTGTTGCGG (site CTGTTCCCTCC)	0.0581
CTGGAGACTTGGGTTCTAACCTGTTGCTT (site AGAACTCCTTC)	0.0253
CTGGAGACTTGGGTTCTAACCTGTTGCTT (site CTGGAGACTAA)	1.93
CTGGCCACTTGGGTTCTAACCTGTTGCCT (site CAGGCCACTAG)	0.115
CTGGCCACTTGGGTTCTAACCTGTTGCCT (site CCGGCCACTAG)	0.0832
CTGGCCACTTGGGTTCTAACCTGTTGCCT (site CGGGCCACTAG)	0.0825
CTGGCCACTTGGGTTCTAACCTGTTGCCT (site CTGGCCACTAG)	0.766
CTGGCGTCTTGGGTTCTAACCTGTTGCCT (site CTGGAGTCTAG)	0.263

Sequence	recombinant barcode read abundance (log10)
CTGGCGTCTTGGGTTCTAACCTGTTGCCT (site CTGGCGTCTAG)	1.1
CTGGCGTCTTGGGTTCTAACCTGTTGCCT (site CTGGGGTCTAG)	0.0321
CTGGCGTCTTGGGTTCTAACCTGTTGCCT (site CTGGTGTCTAG)	0.0782
CTGGGAACTTGGGTTCTAACCTGTTGCAG (site CTCGGAACTAT)	0.149
CTGGGAACTTGGGTTCTAACCTGTTGCAG (site CTGGGAACTCT)	0.836
CTGGGGTCTTGGGTTCTAACCTGTTGCCT (site CTGGAGTCTAG)	0.858
CTGGGGTCTTGGGTTCTAACCTGTTGCCT (site CTGGCGTCTAG)	0.36
CTGGGGTCTTGGGTTCTAACCTGTTGCCT (site CTGGGGTCTAG)	2.45
CTGGGGTCTTGGGTTCTAACCTGTTGCCT (site CTGGTGTCTAG)	0.173
CTGGTGTCTTGGGTTCTAACCTGTTGCCA (site CTGATGTCTTG)	0.0384
CTGGTGTCTTGGGTTCTAACCTGTTGCCA (site CTGCTGTCTTG)	0.0405
CTGGTGTCTTGGGTTCTAACCTGTTGCCA (site CTGGTGTCTTG)	1.12
CTGGTGTCTTGGGTTCTAACCTGTTGCCA (site CTGTTGTCTTG)	0.434
CTGTACTCTTGGGTTCTAACCTGTTGCCT (site CTGCACTCTTG)	0.126
CTGTACTCTTGGGTTCTAACCTGTTGCCT (site CTGTACTCTAG)	1.3
CTGTGAGCTTGGGTTCTAACCTGTTGCAG (site AACAATACTAG)	0.107
CTGTGAGCTTGGGTTCTAACCTGTTGCAG (site CTGTGAGCTCT)	1.47
CTGTGCACTTGGGTTCTAACCTGTTGCCG (site ATGTGCACTCT)	0.053
CTGTGCACTTGGGTTCTAACCTGTTGCCG (site CTGTGCACTCG)	0.197
CTGTGTCCTTGGGTTCTAACCTGTTGCGG (site CTGTGTCCTCC)	1.84
CTGTGTCCTTGGGTTCTAACCTGTTGCGG (site TCAGCCTCTAG)	0.214
CTTAACACTTGGGTTCTAACCTGTTGCCG (site CTTAACACTCG)	0.683

Sequence	recombinant barcode read abundance (log10)
CTTAACACTTGGGTTCTAACCTGTTGCCG (site TCATGACCTAT)	0.0383
CTTACGACTTGGGTTCTAACCTGTTGCCT (site CTTACGACTAG)	0.695
CTTACGACTTGGGTTCTAACCTGTTGCCT (site GTTACAACTAG)	0.355
CTTACTACTTGGGTTCTAACCTGTTGCCA (site CTTACTACTTG)	0.0598
CTTACTACTTGGGTTCTAACCTGTTGCCA (site TCCGGCGCTCC)	0.0182
CTTACTGCTTGGGTTCTAACCTGTTGCCT (site CTTACAGCTAG)	0.775
CTTACTGCTTGGGTTCTAACCTGTTGCCT (site CTTACCGCTAG)	0.291
CTTACTGCTTGGGTTCTAACCTGTTGCCT (site CTTACGGCTAG)	0.295
CTTACTGCTTGGGTTCTAACCTGTTGCCT (site CTTACTGCTAG)	0.183
CTTAGGGCTTGGGTTCTAACCTGTTGCCT (site CTTAGGGCTAG)	0.419
CTTAGGGCTTGGGTTCTAACCTGTTGCCT (site CTTTGTGCTAG)	0.012
CTTAGGGCTTGGGTTCTAACCTGTTGCGG (site CTAAGGGCTCC)	2.14
CTTAGGGCTTGGGTTCTAACCTGTTGCGG (site CTTAGGGCTCC)	3.02
CTTCAAGCTTGGGTTCTAACCTGTTGCCT (site CTACAAGCTAG)	1.17
CTTCAAGCTTGGGTTCTAACCTGTTGCCT (site CTCCAAGCTAG)	0.257
CTTCAAGCTTGGGTTCTAACCTGTTGCCT (site CTGCAAGCTAG)	0.197
CTTCAAGCTTGGGTTCTAACCTGTTGCCT (site CTTCAAGCTAG)	0.983
CTTCGAACTTGGGTTCTAACCTGTTGCAT (site ACATACCCTCA)	0.609
CTTCGAACTTGGGTTCTAACCTGTTGCAT (site CTTCGAACTAT)	0.407
CTTCGACCTTGGGTTCTAACCTGTTGCAT (site CTTCGACCTAT)	2.04
